Laboratory results: US20140009887A1, “FLUORINATED OXIRANES AS HEAT TRANSFER FLUIDS” (3M INNOVATIVE PROPERTIES COMPANY, priority 2011, published 2014)

Legend:
Kinematic viscosity = format: physicochemical; conditions: for Viscosity @ 25° C.: kinematic viscosity; for Low temperature kinematic viscosity (in words): compared with fluids close in boiling point, FIG. 1 and FIG. 2
Text: (§1) The useful liquid range (between the pour point and the normal boiling point) of the fluorinated oxiranes (Examples 1-3) are similar to perfluorocarbons (Comparative 1), perfluoroketones (Comparative 2), and perfluoroethers (Comparative 3). The specific heat capacity of the Comparatives is also very similar to the exemplary fluorinated oxiranes.
The viscosity impacts the heat transfer performance and liquid pumping power.

[1] = Atmospheric lifetime from kinetic studies for reaction with hydroxyl radical; format: physicochemical; conditions: based on kinetic studies for reaction with hydroxyl radical
Text: The atmospheric lifetimes of C6F14 and CF3OCF(CF3)CF2OCF2OCF3 are reported as 3200 years and 800 years, respectively (see Climate Change 2007: The Physical Science Basis. Contribution of Working Group I to the Fourth Assessment Report of the Intergovernmental Panel on Climate Change, Solomon, S., D. Qin, M. Manning, Z. Chen, M. Marquis, K. B. Averyt, M. Tignor and H. L. Miller (eds.), Cambridge University Press, Cambridge, United Kingdom and New York, N.Y., USA, 996 pp, 2007.). […] Based on kinetic studies for reaction with hydroxyl radical, 2,3-difluoro-2-(1,2,2,2-tetrafluoro-l-trifluoromethyl-ethyl)-3-trifluoromethyl-oxirane has an estimated atmospheric lifetime of 20 years.

[2] = Dielectric breakdown strength according to ASTM D877; format: physicochemical; conditions: ASTM D877, model LD60 liquid dielectric test set
Description: In applications where the direct contact of energized, electronic components by the heat transfer fluid occurs, whether intended or otherwise, the need exists for fluids with dielectric breakdown strengths greater than around 8 megavolts/meter (MV/m), measured according to ASTM D877. Such high dielectric breakdown strengths help to avoid damage to the electronic components through short circuits.
The dielectric breakdown strengths of Example 1 and 3 were determined according to ASTM D877, using a model LD60 liquid dielectric test set available from Phenix Technologies, Accident, Md. The breakdown strengths for example 1 and 3 were 15.5 MV/m and 17.3 MV/m respectively.

Vapor pressure = format: physicochemical
Text: as §1

[3] = Normal boiling point (thermophysical properties); format: physicochemical
Text: as §1

Specific heat capacity = format: physicochemical
Text: as §1

[4] = Hydrolytic stability: fluoride ion in water phase after aging with deionized water; format: physicochemical; conditions: for F concentration after 30 min at 25° C. / F concentration after 4 hours at 50° C.: 5 g material + 5 g deionized water; for F concentration after 30 min at 25° C.: agitated 30 min at room temperature (~25° C.); for F concentration after 4 hours at 50° C.: monel pressure vessel
Description: Example 1 and Comparatives 1 and 2 were tested for hydrolytic stability at room temperature (˜25° C.) and 50° C. Room temperature testing was conducted by placing 5 grams of test material along with 5 grams of deionized water in new polypropylene, centrifuge tubes which were then sealed and agitated for 30 minutes using a shaker set at low speed. Elevated temperature testing was carried out by placing 5 grams of test material along with 5 grams deionized water in a clean monel pressure vessel which was sealed and placed in a convection oven set at 50° C. for 4 hours. After aging, the fluoride concentrations were determined by mixing 0.5 ml of the water phase from each sample with 0.5 ml of TISAB II buffer solution and measuring fluoride ion concentration using a calibrated fluoride selective electrode connected to a pH/millivolt meter (both the electrode and buffer solutions are available from Thermo Scientific Orion, Beverly, Mass.). The hydrolytic stability of Example 1, Comparative Example 1 and Comparative Example 2 were determined and are reported as parts per million by weight (ppmw) of fluorine in Table III below.

[5] = Pour point (thermophysical properties); format: physicochemical
Text: as §1

[6] = reported in Climate Change 2007, IPCC Fourth Assessment Report; cited from earlier work

| Compound | Viscosity @ 25° C. (Kinematic viscosity) | Low temperature kinematic viscosity (in words) (Kinematic viscosity) | Estimated atmospheric lifetime [1] [years] | Dielectric breakdown strength [2] [MV/m] | Vapor Pressure @ 25° C. (Vapor pressure) [kPa] | Normal Boiling Point [3] [°C] | Specific Heat Capacity (Specific heat capacity) [J/kg-K] | F concentration after 30 min at 25° C. [4] [ppmw] | F concentration after 4 hours at 50° C. [4] [ppmw] | Hydrolytic stability (comparison in words) ([4]; room temperature and 50° C.) | Pour Point [5] [°C] | Atmospheric lifetime [6] [years] |
| --- | --- | --- | --- | --- | --- | --- | --- | --- | --- | --- | --- | --- |
| FC(F)(F)C1(F)OC1(F)C(F)(C(F)(F)F)C(F)(F)F (stereo not drawn) [Example 1, 2,3-difluoro-2-(1,2,2,2-tetrafluoro-1-trifluoromethyl-ethyl)-3-trifluoromethyl-oxirane] | 3.7 ×10^−7 m^2/s | better low temperature viscosity | 20 | 15.5 | 36.0 | 51.7 | 1145 | 0.14 | 0.13 | comparable to that of comparative 1 and better than comparative 2 | −145 | – |
| FC1(F)C(F)(F)C(F)(F)C2(F)OC2(F)C1(F)F (stereo not drawn) [Example 2, 1,2,2,3,3,4,4,5,5,6-decafluoro-7-oxa-bicyclo [4.1.0]heptane] | 6.6 ×10^−7 m^2/s | better low temperature viscosity | – | – | 30.3 | 56.1 | 1083 | – | – | – | −88 | – |
| FC(F)(F)OC(F)(F)OC(F)(F)C(F)(OC(F)(F)F)C(F)(F)F (stereo not drawn) [CF3OCF(CF3)CF2OCF2OCF3] | – | – | – | – | – | – | – | – | – | – | – | 800 |
| HFP Trimer-Oxirane [Example 3] | 12.5 ×10^−7 m^2/s | acceptable viscosity for heat transfer applications as low as −40 °C | – | 17.3 | 1.6 | 121.9 | 869 | – | – | – | −103 | – |
| FC(F)(F)C(F)(F)C(F)(F)N(C(F)(F)C(F)(F)C(F)(F)F)C(F)(F)C(F)(F)C(F)(F)F [Comparative 4, Perfluorotripropylamine] | 7.5 ×10^−7 m^2/s | – | – | – | 1.4 | 130 | 1100 | – | – | – | −50 | – |
| CCOC(F)(C(F)(F)C(F)(F)C(F)(F)F)C(F)(C(F)(F)F)C(F)(F)F (stereo not drawn) [Comparative 3, 2-trifluoromethyl-3-ethoxydodecafluorohexane] | 7.7 ×10^−7 m^2/s | – | – | – | 2.1 | 128 | 1128 | – | – | – | −100 | – |
| O=C(C(F)(F)C(F)(F)F)C(F)(C(F)(F)F)C(F)(F)F [Comparative 2, Dodecafluoro-2-methylpentan-3-one] | 4.0 ×10^−7 m^2/s | – | – | – | 40.4 | 49 | 1103 | 1.13 | 5.89 | – | −108 | – |
| FC(F)(F)C(F)(F)C(F)(F)C(F)(F)C(F)(F)C(F)(F)F [Comparative 1, Perfluorohexane] | 3.8 ×10^−7 m^2/s | – | – | – | 30.0 | 56 | 1100 | 0.09 | 0.23 | – | −90 | 3200 |
| FC(F)(F)C(F)(F)C1(F)OC1(C(F)(F)F)C(F)(F)F (stereo not drawn) [2-fluoro-2-pentafluoroethyl-3,3-bis-trifluoromethyl-oxirane] | – | – | 77 | – | – | – | – | – | – | – | – | – |
